# Data published in patent US20250049738A1, “METHOD OF TREATMENT AND SELECTION OF PATIENTS BENEFITING FROM AGOMELATINE BASED ON EEG MEASUREMENTS” (Alto Neuroscience, Inc., priority 2023, published 2025).
# What was measured:
# [1] = system: patients with major depressive disorder; test: Open-label trials of adjunctive agomelatine 25 mg at bedtime in MDD; baseline EEG models predicting change in MADRS; assay type: in vivo, human
# [2] = system: circadian rhythm; settings: in vivo; cited from earlier work
# [3] = system: sleep measures; settings: cited from earlier work
# [4] = system: unselected depression patients; settings: monotherapy, meta-analytically calculated; cited from earlier work
# [5] = system: performance on a trail making task; settings: versus an SSRI; cited from earlier work
smiles,measurement,setting,value
"COc1ccc2cccc(CCNC(C)=O)c2c1 [agomelatine, N-[2-(7-methoxynaphthalen-1-yl)ethyl]acetamide]","d (Cohen's d, prediction of agomelatine outcome)","[1]; REC, Modified Multiscale Entropy, lower gamma, Week 2",0.01
same,"d (Cohen's d, prediction of agomelatine outcome)","[1]; REC, Modified Multiscale Entropy, lower gamma, Week 4",0.21
same,"d (Cohen's d, prediction of agomelatine outcome)","[1]; REC, Modified Multiscale Entropy, upper alpha, Week 1",0.19
same,"d (Cohen's d, prediction of agomelatine outcome)","[1]; REC, Modified Multiscale Entropy, upper alpha, Week 2",0.25
same,"d (Cohen's d, prediction of agomelatine outcome)","[1]; REC, Modified Multiscale Entropy, upper alpha, Week 4",0.39
same,"d (Cohen's d, prediction of agomelatine outcome)","[1]; REC, Multiscale Entropy, upper alpha, Week 1",0.05
same,"d (Cohen's d, prediction of agomelatine outcome)","[1]; REO, Approximate Entropy, lower gamma, Week 1",−0.15
same,"d (Cohen's d, prediction of agomelatine outcome)","[1]; REO, Approximate Entropy, lower gamma, Week 2",−0.05
same,"d (Cohen's d, prediction of agomelatine outcome)","[1]; REO, Approximate Entropy, lower gamma, Week 4",0.09
same,"d (Cohen's d, prediction of agomelatine outcome)","[1]; REO, Detrended Fluctuation Analysis, upper gamma, Week 1",0.37
same,"d (Cohen's d, prediction of agomelatine outcome)","[1]; REO, Detrended Fluctuation Analysis, upper gamma, Week 2",0.33
same,"d (Cohen's d, prediction of agomelatine outcome)","[1]; REO, Detrended Fluctuation Analysis, upper gamma, Week 4",0.32
same,"d (Cohen's d, prediction of agomelatine outcome)","[1]; REO, Higuchi Fractal Dimension, delta, Week 1",−0.15
same,"d (Cohen's d, prediction of agomelatine outcome)","[1]; REO, Higuchi Fractal Dimension, delta, Week 2",−0.05
same,"d (Cohen's d, prediction of agomelatine outcome)","[1]; REO, Higuchi Fractal Dimension, delta, Week 4",0.12
same,"d (Cohen's d, prediction of agomelatine outcome)","[1]; REO, Higuchi Fractal Dimension, lower beta, Week 1",0.03
same,"d (Cohen's d, prediction of agomelatine outcome)","[1]; REO, Higuchi Fractal Dimension, lower beta, Week 2",0.03
same,"d (Cohen's d, prediction of agomelatine outcome)","[1]; REO, Higuchi Fractal Dimension, lower beta, Week 4",0.05
same,"d (Cohen's d, prediction of agomelatine outcome)","[1]; REO, Higuchi Fractal Dimension, upper gamma, Week 1",0.04
same,"d (Cohen's d, prediction of agomelatine outcome)","[1]; REO, Higuchi Fractal Dimension, upper gamma, Week 2",0.06
same,"d (Cohen's d, prediction of agomelatine outcome)","[1]; REO, Higuchi Fractal Dimension, upper gamma, Week 4",0.11
same,"d (Cohen's d, prediction of agomelatine outcome)","[1]; REO, Katz Fractal Dimension, delta, Week 1",0.04
same,"d (Cohen's d, prediction of agomelatine outcome)","[1]; REO, Katz Fractal Dimension, delta, Week 2",0.07
same,"d (Cohen's d, prediction of agomelatine outcome)","[1]; REO, Katz Fractal Dimension, delta, Week 4",0.13
same,"d (Cohen's d, prediction of agomelatine outcome)","[1]; REO, Katz Fractal Dimension, lower beta, Week 1",0.28
same,"d (Cohen's d, prediction of agomelatine outcome)","[1]; REO, Katz Fractal Dimension, lower beta, Week 2",0.18
same,"d (Cohen's d, prediction of agomelatine outcome)","[1]; REO, Katz Fractal Dimension, lower beta, Week 4",0.06
same,"d (Cohen's d, prediction of agomelatine outcome)","[1]; REO, Katz Fractal Dimension, upper beta, Week 1",0.24
same,"d (Cohen's d, prediction of agomelatine outcome)","[1]; REO, Katz Fractal Dimension, upper beta, Week 2",0.24
same,"d (Cohen's d, prediction of agomelatine outcome)","[1]; REO, Katz Fractal Dimension, upper beta, Week 4",0.29
same,"d (Cohen's d, prediction of agomelatine outcome)","[1]; REO, Largest Lyapunov Exponent, upper alpha, Week 1",0.03
same,"d (Cohen's d, prediction of agomelatine outcome)","[1]; REO, Largest Lyapunov Exponent, upper alpha, Week 2",0.08
same,"d (Cohen's d, prediction of agomelatine outcome)","[1]; REO, Largest Lyapunov Exponent, upper alpha, Week 4",0.17
same,"d (Cohen's d, prediction of agomelatine outcome)","[1]; REO, Largest Lyapunov Exponent, upper gamma, Week 1",−0.24
same,"d (Cohen's d, prediction of agomelatine outcome)","[1]; REO, Largest Lyapunov Exponent, upper gamma, Week 2",−0.11
same,"d (Cohen's d, prediction of agomelatine outcome)","[1]; REO, Largest Lyapunov Exponent, upper gamma, Week 4",0.08
same,"d (Cohen's d, prediction of agomelatine outcome)","[1]; REO, Lempel-Ziv Complexity, lower gamma, Week 1",−0.24
same,"d (Cohen's d, prediction of agomelatine outcome)","[1]; REO, Lempel-Ziv Complexity, lower gamma, Week 2",−0.13
same,"d (Cohen's d, prediction of agomelatine outcome)","[1]; REO, Lempel-Ziv Complexity, lower gamma, Week 4",0.02
same,"d (Cohen's d, prediction of agomelatine outcome)","[1]; REO, Lempel-Ziv Complexity, theta, Week 1",0.13
same,"d (Cohen's d, prediction of agomelatine outcome)","[1]; REO, Lempel-Ziv Complexity, theta, Week 2",0.14
same,"d (Cohen's d, prediction of agomelatine outcome)","[1]; REO, Lempel-Ziv Complexity, theta, Week 4",0.17
same,"d (Cohen's d, prediction of agomelatine outcome)","[1]; REO, Lempel-Ziv Complexity, upper beta, Week 1",0.19
same,"d (Cohen's d, prediction of agomelatine outcome)","[1]; REO, Lempel-Ziv Complexity, upper beta, Week 2",0.21
same,"d (Cohen's d, prediction of agomelatine outcome)","[1]; REO, Lempel-Ziv Complexity, upper beta, Week 4",0.30
same,"d (Cohen's d, prediction of agomelatine outcome)","[1]; REO, Modified Multiscale Entropy, upper beta, Week 1",0.08
same,"d (Cohen's d, prediction of agomelatine outcome)","[1]; REO, Modified Multiscale Entropy, upper beta, Week 2",0.15
same,"d (Cohen's d, prediction of agomelatine outcome)","[1]; REO, Modified Multiscale Entropy, upper beta, Week 4",0.31
same,"d (Cohen's d, prediction of agomelatine outcome)","[1]; REO, Multiscale Entropy, lower gamma, Week 1",−0.41
same,"d (Cohen's d, prediction of agomelatine outcome)","[1]; REO, Multiscale Entropy, lower gamma, Week 2",−0.21
same,"d (Cohen's d, prediction of agomelatine outcome)","[1]; REO, Multiscale Entropy, lower gamma, Week 4",0.05
same,"MADRS change, high vs low Pz low-gamma sample entropy","[1]; high = z≥0.27, full study sample, all weeks, FIG. 2C",strong and statistically significant prediction of treatment outcome across all weeks
same,effect on circadian rhythm,[2],phase advance circadian rhythm
same,sleep measures assessed using actigraphic measurements,[3]; in contrast to an SSRI,improve sleep measures
same,deep to total sleep ratio,[3]; in vivo,increasing the deep to total sleep ratio
same,"all-comer effect size d, treatment response to agomelatine versus placebo",[4],0.26
same,performance on a trail making task,[5],superior to an SSRI
